{
  "source": "patent US9532949B2",
  "about": "“Intraperitoneally-administered nanocarriers that release their therapeutic load based on the inflammatory environment of cancers” (STC.UNM, priority 2011, dated 2017)",
  "key": {"[1]": {"assay": "Disruption of supported lipid bilayer on porous silica spheres by Triton X-100, release of fluorescein", "conditions": "5% (w/v) Triton X-100; 3 μm porous silica spheres, egg PC bilayer, supernatant fluorescence", "method": "FIG. 7. Disruption of lipid bilayer by Triton X-100. 3 μm silica spheres with 50 Å nominal pore size were incubated with 5 mM fluorescein then coated with a lipid bilayer made of egg phosphatidyl choline. Part of spheres was left with no treatment, and part was treated with Triton X-100 (TX 100) at a final concentration of 5% (w/v). Fluorescence of the supernatant after sedimenting the spheres was examined to check for release of fluorescein.\nThe platform we plan to use employs supported lipid bilayers (SLBs) on porous silica. We will test the disruption of SLBs by ozone employing the above described system to generate ozone photochemically by Trp. For detecting disruption of the SLB we tested the proof-of-concept by adding Triton X-100 (TX 100) to spheres encapsulating fluorescein within 3 microns porous silica (Macherey-Nagel, Germany) followed by forming the SLB as previously described (FIG. 7). Disruption of the SLB by TX 100 caused release of the encapsulated fluorescein (14 fold increase in fluorescence by TX100 vs. untreated spheres)."}, "[2]": {"test_system": "OVCA cells", "excerpt": "For all above experiments, DOX will be added directly to cells as a positive control after determining the optimal concentration of the drug to be used to cause at least 70% cytotoxicity. […] Negative controls include (1) absence of ROS either by not activating macrophages; and (2) addition of nanocarriers devoid of DOX but with generation of ROS. Data will be collected in triplicates and comparisons will be done using a non-parametric Welch's two sample t-test where any p-value below 0.05 will be considered statistically significant.\nHowever, for the nanocarriers, 72 hr may allow internalization of the nanocarriers and release of DOX regardless of presence of ROS."}, "[3]": {"test_system": "macrophages", "assay": "Generation of ROS by activated macrophages (CellROX, flow cytometry)", "type": "cell-based", "conditions": "PMA 1 μM for 30 minutes, 5 μM CellROX", "method": "H36.12j and RAW264.7 macrophages cell line was obtained from American Type Cell Culture (ATCC, Manassas, Va.). H36.12j cells were grown in Delbecco's Modified Eagles Medium (ATTC, Manassas, Va.) supplemented with 10% (v/v) Heat-inactivated iron bovine calf serum. Propagation was at 37° C. in 5% carbon dioxide. RAW264.7 cells were grown in Delbecco's Modified Eagles Medium (ATTC, Manassas, Va.) supplemented with 10% (v/v) fetal bovine serum. Propagation was at 37° C. in 10% carbon dioxide.\nCells (0.2×10^6 in 500 uL media) were pipetted into each well of 24-well plate. Cells were stimulated with phorbol-12-myristate-13-acetate (PMA), (Sigma—Saint Louis, Mo.) at a final concentration of 1 μM for 30 minutes, followed by an incubation with 5 μM CellROX (Invitrogen) for 30 minutes to detect ROS. Fluorescence was then determined by flow cytometry."}, "[4]": {"assay": "Photochemical ozone production catalyzed by amino acids in cell-free system (indigo carmine absorbance at 610 nm)", "conditions": "for Ozone production: 1 mM amino acid or 5 mg/mL BSA, 10 μM 6-biopterin, UVA irradiation, 30 μM indigo carmine", "method": "FIG. 4. Ozone production catalyzed by amino acids in cell-free system in presence of 10 μM 6-biopterin and with UVA irradiation. Tubes also contained 30 μM indigo carmine which got converted by ozone to isatin sulfonic acid as detected by a decrease in absorbance at 610 nm. 1 mM of each amino acid and 5 mg/mL BSA in phosphate buffer were tested. Error bars represent standard deviation for three replicates.\nFIG. 5. Both UVA and 6BP are required to generate ozone by tryptophan. 1 mM Trp was tested. Error bars represent standard deviation for three replicates.\nFIG. 6. Dose response curve for generation of ozone by increasing concentrations of Trp. Tested concentrations were 0, 10, 20, 40, 80 & 160, 500, 1000 μM tryptophan. Higher concentrations 500 μM and 1 mM Trp are not shown as they gave similar results to 160 μM. Error bars represent standard deviation for three replicates.\nWe successfully generated ozone (a molecule with the chemical signature of ozone) in a cell-free system by employing a photochemical source i.e. by adding a photosensitizer and exposing the tube contents to UVA irradiation. Our findings are summarized in this section. Four amino acids (tryptophan, methionine, cysteine, and histidine), but not other amino acids were reported to have the same catalytic activity as antibodies needed for water oxidation to produce ozone along with increasing bactericidal activity of neutrophils by employing a photochemical source. For our preliminary studies we used amino acids as the simplest mechanism to generate ozone. The photosensitizer we used is 6-biopterin (Sigma-Aldrich, St Louis, Mo.), and the UVA irradiation (315-400 nm) was provided by an ozone-free 1000W Xenon arc lamp as a solar simulator with blocking UVB radiation by appropriate filters (Oriel Instruments, Stratford, Conn.). The output of UVA radiation was confirmed and was measured by a UV meter (Model 3D, Solar Light, Glenside, Pa.) to be 6 mW/cm^2; we exposed the samples for 4 minutes. Ozone was detected through its conversion of indigo carmine (a blue dye with absorbance maximum at 610 nm) to isatin sulfonic acid (colorless) as we monitored this conversion by measuring absorbance at 610 nm as previously described.\nThe platform we plan to use employs supported lipid bilayers (SLBs) on porous silica. We will test the disruption of SLBs by ozone employing the above described system to generate ozone photochemically by Trp. […] Disruption of the SLB by TX 100 caused release of the encapsulated fluorescein (14 fold increase in fluorescence by TX100 vs. untreated spheres)."}},
  "data": [
    {"molecule": "Triton X-100 [TX 100]", "values": [
      {"measurement": "Increase in fluorescence (release of encapsulated fluorescein) vs. untreated spheres", "setting": "[1]", "result": 14, "unit": "fold"}
    ]},
    {"molecule": "COc1cccc2c1C(=O)c1c(O)c3c(c(O)c1C2=O)C[C@@](O)(C(=O)CO)C[C@@H]3O[C@H]1C[C@H](N)[C@H](O)[C@H](C)O1", "note": "[DOX, doxorubicin]", "values": [
      {"measurement": "Cytotoxicity (cell death)", "setting": "[2]", "result": 96, "unit": "%"},
      {"measurement": "Cytotoxicity", "setting": "[2]; 1 μM DOX, 24 hr incubation", "result": "~45", "unit": "%"}
    ]},
    {"molecule": "CCCCCCCCCCCCCC(=O)O[C@@H]1[C@@H](C)[C@@]2(O)[C@@H](C=C(CO)C[C@]3(O)C(=O)C(C)=C[C@@H]23)[C@@H]2C(C)(C)[C@]12OC(C)=O", "note": "[PMA, phorbol-12-myristate-13-acetate]", "values": [
      {"measurement": "Generation of ROS by macrophages", "setting": "[3]", "result": "ROS was generated"}
    ]},
    {"molecule": "N[C@@H](Cc1c[nH]c2ccccc12)C(=O)O", "note": "[tryptophan]", "values": [
      {"measurement": "Conversion of singlet oxygen to ozone, dose response", "setting": "[4]; 0-1000 μM tryptophan", "result": "dose-dependent manner"},
      {"measurement": "Ozone production", "setting": "[4]", "result": "photochemically generated ozone"},
      {"measurement": "Ozone production", "setting": "[4]; listed as Tryptophan", "result": "highest level of ozone"},
      {"measurement": "Water oxidation (ozone generation) by tryptophan alone", "setting": "[4]; without 6-biopterin and UVA exposure, 1 mM Trp", "result": "not capable of water oxidation"}
    ]}
  ]
}
